Reference: ChEMBL document CHEMBL5500390, “Overcoming Secondary Mutations of Type II Kinase Inhibitors” (J Med Chem, 2024)

Assays:
[1] = Inhibition of cell growth in mouse 32D cells transfected with FLT3 ITD mutant incubated for 2 days; format: functional; conditions: 48 h, time 2 day
[2] = Inhibition of cell growth in mouse 32D cells transfected with FLT3 ITD F691L mutant incubated for 2 days; format: functional; conditions: 48 h, time 2 day

Compound: CCCNc1nc(Nc2ccc(C#N)cc2)ncc1C#CCCCNC(=O)[C@H](C)N(C)C(=O)/C=C/CN(C)C [FF-10101]
- GI50 [1]: 1.9 nM
- GI50 [2]: 10 nM
